Results published in patent US20120202822A1, “COMBINATION” (priority 2009, published 2012).

Columns and labels:
Format in all cases: cell-based
[1] = test system: 12R5-1; assay: Cell Growth Inhibition Assay (Cell Titer Glo, 3 days); details: Homo sapiens, 72 h, 12R5-1 (Compound A resistant clone), read-out: IC50, Single Agent (mean ± std)
Description: (§1) Melanoma A375 PF11 line was derived from A375 (ATCC). 12R5-1, 12R5-3, 12R8-1, 12R8-3, 16R5-2, 16R6-3 and 16R6-4 are single cell clones derived from mixed populations of A375 PF11 cells that were selected to grow in Compound A to concentrations of 1200 and 1600 nM. All lines were cultured in RPMI 1640 medium containing 10% fetal bovine serum (FBS).
(§2) All cells were cultured for a minimum of 72 hours prior to cell plating. Cells were assayed in a 96-well tissue culture plate (NUNC 136102) of RPMI medium containing 10% FBS for all cells at 1,000 cells per well. Approximately 24 hours after plating, cells were exposed to ten, three-fold serial dilutions of compound or the combination of the two agents at a constant molar to molar ratio of 1:10 Compound A to Compound B in RPMI media containing 10% FBS. Cells were incubated in the presence of compounds for 3 days. ATP levels were determined by adding Cell Titer Glo® (Promega) according to the manufacturer's protocol. Briefly, Cell Titer Glo® was added each plate, incubated for 30 minutes then luminescent signal was read on the SpectraMax L plate reader with a 0.5 sec integration time.
(§3) Inhibition of cell growth was estimated after treatment with compound or combination of compounds for three days and comparing the signal to cells treated with vehicle (DMSO). Cell growth was calculated relative to vehicle (DMSO) treated control wells. Concentration of compound that inhibits 50% of control cell growth (IC50) was interpolated when y=50% of the vehicle control using nonlinear regression with the equation, y=(A+(B−A)/(1+(C/x)̂D))), where A is the minimum response (ymin), B is the maximum response (ymax), C is the inflection point of the curve (EC50) and D is the Hill coefficient.
(§4) Combination effects on potency were evaluated using Combination Index (CI) which was calculated with the back-interpolated IC50 values and the mutually non-exclusive equation derived by Chou and Talalay (Chou T C, Talalay P. Quantitative analysis of dose-effect relationships: the combined effects of multiple drugs or enzyme inhibitors. Adv Enzyme Regul 1984; 22:27-55.) A detailed description of the CI is found above. In general, a CI value <0.9, between 0.9 and 1.1, or >1.1 indicates synergy, additivity and antagonism, respectively. In general, the smaller the CI number, the greater is the strength of synergy.
(§5) The combination effects on the response scale were quantified by Excess Over Highest Single Agent (EOHSA) based on the concept of nonlinear blending as described in detail by Peterson and Novick (2007) and Peterson (2010) [Peterson J J, Novick S J. J Recept Signal Transduct Res 2007; 27(2-3):125-46, Peterson J. Frontiers of Bioscience S2, 483-503. 2010] EOHSA values are defined as increases in improvement (here, in ‘percentage points’ (ppts) difference) produced by the combination over the best single agent at its component dose level for the combination. Details on the calculation of EOHSA can be found above. For single agent and combination treatments, cells were exposed to compounds at a fixed-dose-ratio, and dose response curves were fit to the experimental data and analyzed using regression models. At specified total dose levels of IC50 along the dose response curve, the dose combination (corresponding to IC50) was determined for making EOHSA statistical inferences. More specifically, for a combination drug experiment involving drug 1 at dose d1 and drug 2 at dose d2, (i.e., total dose equals d1+d2) is said to have a positive EOHSA if the mean response at the combination is better than the mean response to drug 1 at dose d1 […] drug 2 at dose d2.

[2] = test system: 12R5-3; assay: as above; details: Homo sapiens, 72 h, 12R5-3 (Compound A resistant clone), read-out: IC50, Single Agent (mean ± std)
Description: as §1, §2, §3, §4, §5

[3] = test system: 12R8-1; assay: as above; details: Homo sapiens, 72 h, 12R8-1 (Compound A resistant clone), read-out: IC50, Single Agent (mean ± std)
Description: as §1, §2, §3, §4, §5

[4] = test system: 12R8-3; assay: as above; details: Homo sapiens, 72 h, 12R8-3 (Compound A resistant clone), read-out: IC50, Single Agent (mean ± std)
Description: as §1, §2, §3, §4, §5

[5] = test system: 16R5-2; assay: as above; details: Homo sapiens, 72 h, 16R5-2 (Compound A resistant clone), read-out: IC50, Single Agent (mean ± std)
Description: as §1, §2, §3, §4, §5

[6] = test system: 16R6-3; assay: as above; details: Homo sapiens, 72 h, 16R6-3 (Compound A resistant clone), read-out: IC50, Single Agent (mean ± std)
Description: as §1, §2, §3, §4, §5

[7] = test system: 16R6-4; assay: as above; details: Homo sapiens, 72 h, 16R6-4 (Compound A resistant clone), read-out: IC50, Single Agent (mean ± std)
Description: as §1, §2, §3, §4, §5

[8] = test system: A375PF11; assay: as above; details: Homo sapiens, A375P-F11, 72 h, A375PF11 (BRAF_V600E), read-out: IC50, Single Agent (mean ± std)
Description: as §1, §2, §3, §4, §5

[9] = test system: seven Compound A resistant clones derived from the A375 PF11 melanoma cell line; assay: Cell Growth Inhibition Assay, summary over resistant clones; details: Homo sapiens, A375P-F11, 72 h, 3 days, read-out: IC50s, Compound B alone, range over clones
Description: as §1, §2
Inhibition of cell growth was estimated after treatment with compound or combination of compounds for three days and comparing the signal to cells treated with vehicle (DMSO). Cell growth was calculated relative to vehicle (DMSO) treated control wells. […]

`CC(C)(C)c1nc(-c2cccc(NS(=O)(=O)c3c(F)cccc3F)c2F)c(-c2ccnc(N)n2)s1` [Compound A, N-{3-[5-(2-amino-4-pyrimidinyl)-2-(1,1-dimethylethyl)-1,3-thiazol-4-yl]-2-fluorophenyl}-2,6-difluorobenzenesulfonamide] was tested, and the IC50 [1] was > 10000 nM, the IC50 [2] was > 10000 nM and the IC50 [3] was > 10000 nM. For the same compound, the IC50 [4] was > 10000 nM, the IC50 [5] was > 10000 nM and the IC50 [6] was > 10000 nM. The IC50 [7] was > 10000 nM and the IC50 [8] was 59 nM.
For `COc1ncc(-c2ccc3nccc(-c4ccnnc4)c3c2)cc1NS(=O)(=O)c1ccc(F)cc1F` [Compound B, 2,4-difluoro-N-{2-(methyloxy)-5-[4-(4-pyridazinyl)-6-quinolinyl]-3-pyridinyl}benzenesulfonamide], the IC50 [1] was 212 ± 38 nM, the IC50 [2] was 88 ± 2 nM and the IC50 [3] was 103 ± 16 nM. It also gave an IC50 [4] of 129 ± 24 nM, an IC50 [5] of 41 ± 18 nM and an IC50 [6] of 80 ± 17 nM. For the same compound, the IC50 [7] was 61 ± 10 nM, the IC50 [8] was 48 nM and the IC50 [9] was 41 to 212 nM.
